According to ChEMBL document CHEMBL4152238, “Design, synthesis, structure-activity relationships and X-ray structural studies of novel 1-oxopyrimido[4,5-c]quinoline-2-acetic acid derivatives as selective and potent inhibitors of human aldose reductase” (Eur J Med Chem, 2018):
The source made the active and inactive calls. No cut-off for these calls is given here.

Columns and labels:
[1] = Inhibition of […] AKR1B1 expressed in Escherichia coli BL21 using D,L-glyceraldehyde as substrate pretreated for 5 mins followed by substrate addition by spectrophotometric method; conditions: for Ki: read-out: Ki(app)
[2] = biological target: Aldo-keto reductase family 1 member B10 (Homo sapiens, UniProt O60218); assay: Inhibition of N-terminal His10-tagged AKR1B10 (unknown origin) expressed in Escherichia coli BL21 using D,L-glyceraldehyde as substrate pretreated for 5 mins followed by substrate addition by spectrophotometric method
[3] = Selectivity ratio of IC50 for N-terminal His10-tagged AKR1B10 (unknown origin) expressed in Escherichia coli BL21 to IC50 for […] AKR1B1 expressed in Escherichia coli BL21
HT-1080 = assay: Cytotoxicity against human HT1080 cells after 72 hrs by MTT assay; assay type: functional, cell-based; conditions: HT-1080, 72 h
Cricetulus griseus = species: Cricetulus griseus; assay: Inhibition of […] AKR1B1 expressed in Escherichia coli BL21 up to 10 uM using D,L-glyceraldehyde as substrate pretreated for 5 mins followed by substrate addition by spectrophotometric method

Aldo-keto reductase family 1 member B10, sequence (O60218 whole entry): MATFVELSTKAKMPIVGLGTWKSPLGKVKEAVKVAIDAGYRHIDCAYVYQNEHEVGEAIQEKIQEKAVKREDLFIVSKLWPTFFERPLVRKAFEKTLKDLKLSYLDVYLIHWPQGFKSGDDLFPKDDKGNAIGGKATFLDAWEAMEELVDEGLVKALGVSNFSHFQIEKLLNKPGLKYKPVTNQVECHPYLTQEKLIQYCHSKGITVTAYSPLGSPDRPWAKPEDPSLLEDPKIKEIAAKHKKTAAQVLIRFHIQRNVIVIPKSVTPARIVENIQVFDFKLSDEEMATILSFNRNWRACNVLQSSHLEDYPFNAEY

Row | Structure (SMILES) | IC50 [1] | Ki [1] | IC50 [2] | Ratio IC50 [3] | IC50 (HT-1080) | inhibition (Cricetulus griseus)
1 | CCCc1nc2c(-c3ccc(Cl)cc3)nc3ccccc3c2c(=O)n1CC(=O)O | 190 nM | 130 nM | 3330 nM | 18 | – | –
2 | Cc1nc2c(-c3ccc(Br)cc3)nc3ccc(F)cc3c2c(=O)n1CC(=O)O | 570 nM | – | 9610 nM | 17 | > 100000 nM | –
3 | Cc1nc2c(-c3ccc(Cl)cc3)nc3ccc(F)cc3c2c(=O)n1CC(=O)O | 350 nM | 240 nM | 8180 nM | 23 | > 100000 nM | –
4 | Cc1nc2c(-c3ccc(Cl)cc3)nc3ccc(Cl)cc3c2c(=O)n1CC(=O)O | 1540 nM | – | 9610 nM | 6 | 30200 nM | –
5 | Cc1nc2c(-c3ccc(Br)cc3)nc3ccc(Br)cc3c2c(=O)n1CC(=O)O | 1570 nM | – | 16300 nM | 10 | > 100000 nM | –
6 | Cc1nc2c(-c3ccc(Br)cc3)nc3ccc(Cl)cc3c2c(=O)n1CC(=O)O | 1920 nM | – | 13800 nM | 7 | > 100000 nM | –
7 | O=C(O)Cn1c(Cc2ccccc2)nc2c(-c3ccc(Cl)cc3)nc3ccccc3c2c1=O | 2650 nM | – | 2350 nM | 1 | – | –
8 | Cc1nc2c(-c3ccccc3)nc3ccccc3c2c(=O)n1CC(=O)O | 430 to 460 nM | 440 nM | 6390 nM | 14 | – | –
9 | Nn1c(-c2ccc(Cl)cc2)nc2c(-c3ccc(Cl)cc3)nc3ccc(Cl)cc3c2c1=O | – | – | – | – | – | inactive
10 | COc1ccc(-c2nc3ccc(Cl)cc3c3c(=O)n(CC(=O)O)c(C)nc23)cc1 | 760 nM | – | 17000 nM | 22 | 78100 nM | –
11 | COc1ccc2nc(-c3ccc(Cl)cc3)c3nc(C)n(CC(=O)O)c(=O)c3c2c1 | 3140 nM | – | 15000 nM | 5 | 86700 nM | –
12 | COc1cccc2c1C(=O)c1c(O)c3c(c(O)c1C2=O)C[C@@](O)(C(=O)CO)C[C@@H]3O[C@H]1C[C@H](N)[C@H](O)[C@H](C)O1 [DOXORUBICIN] | – | – | – | – | 5.8 nM | –
13 | O=C(O)Cn1c(Cc2ccc(Cl)cc2)nc2c(-c3ccccc3)nc3ccccc3c2c1=O | 660 nM | – | 5870 nM | 9 | – | –
14 | Cc1nc2c(-c3ccc(Cl)cc3)nc3ccc(Br)cc3c2c(=O)n1CC(=O)O | 2220 nM | – | 17800 nM | 8 | > 100000 nM | –
15 | CCc1nc2c(-c3ccc(Cl)cc3)nc3ccc(F)cc3c2c(=O)n1CC(=O)O | 410 nM | 500 nM | 3890 nM | 9 | – | –
16 | Cc1nc2c(-c3ccc(Br)cc3)nc3ccccc3c2c(=O)n1CC(=O)O | 200 nM | 150 nM | 10000 nM | 50 | > 100000 nM | –
17 | Cc1ccc2nc(-c3ccc(Cl)cc3)c3nc(C)n(CC(=O)O)c(=O)c3c2c1 | 4920 nM | – | 28500 nM | 6 | > 100000 nM | –
18 | O=C(O)Cn1c(Cc2ccc(Cl)cc2)nc2c(-c3ccc(Cl)cc3)nc3ccccc3c2c1=O | 1010 nM | – | 2990 nM | 3 | – | –
19 | COc1ccc(-c2nc3ccc(F)cc3c3c(=O)n(CC(=O)O)c(C)nc23)cc1 | 260 nM | 240 nM | 10000 nM | 38 | > 100000 nM | –
20 | Cc1nc2c(-c3ccc(Cl)cc3)nc3ccccc3c2c(=O)n1CC(=O)O | 210 nM | 130 nM | 7860 nM | 37 | > 100000 nM | –
21 | Nn1c(-c2ccc(Br)cc2)nc2c(-c3ccc(Br)cc3)nc3ccc(Cl)cc3c2c1=O | – | – | – | – | – | inactive
22 | CCc1nc2c(-c3ccc(Cl)cc3)nc3ccccc3c2c(=O)n1CC(=O)O | 120 nM | 73 nM | 4710 nM | 39 | – | –
